For one data set, the target named is cloned rat D3 receptors (Rattus norvegicus (Rat), UniProt P19020). Briefly: [3H]spiroperidol competition binding, rat D3 receptors in HEK-293 cells. The note with it: rat D3 in HEK-293 cells; values of Table 3. On the procedure:
A well established radioligand competition assay was carried out to evaluate binding affinity of the test compounds and were compared with that of the reference agent (S)-5-OH-DPAT (Table 3). Binding affinity to rat DA D2 and D3 receptors expressed in HEK-293 cells was determined as described by us previously. […] This indicated highest tolerance of the 4-substituted carbazole derivative for interaction with the D2 and D3 receptors.
All these procedures were described by us previously.

A further data set concerns the target human DA D2 receptors (Homo sapiens (Human), UniProt P14416). Nature of the data set: [35S]GTPγS binding stimulation, human D2 receptors in CHO cells. Type of data set: biochemical. The conditions noted are these: for Emax: compared with maximum stimulation by full agonist DA. On the technique in general: GTPγS is a poorly hydrolysed GTP analogue; its binding reports G protein activation.

The next data set deals with human DA D3 receptors (Homo sapiens (Human), UniProt P35462). Nature of the data set: [35S]GTPγS binding stimulation, human D3 receptors in CHO cells. Type of data set: biochemical. The conditions noted are these: for Emax: compared with maximum stimulation by full agonist DA.
In data set [1] the test system is PC12 cells. Briefly: MTT neuroprotection against 6-OHDA-induced toxicity. The conditions noted are these: for concentration of greatest protective effect: 24 h pretreatment, then 75 μM 6-OHDA 24 h; for increase in cell survival compared to 6-OHDA treated alone: at concentration of greatest protective effect, 75 μM 6-OHDA. Type of data set: cell-based, rat. On the procedure:
To investigate the neuroprotection property of the selected target molecules (−)-91b, (−)-95a and (−)-95c against 6-OHDA-induced cytotoxicity, we used dopaminergic rat adrenal Pheochromocytoma PC12 cells. As reported above, treatment of PC12 cells with 6-OHDA at 75 μM for 24 h produced ˜50% loss in cells viability and this concentration was used in subsequent experiments. […] However, (−)-95a produced some incremental toxicity starting at 20 μM dose (FIG. 4B). The potential neuroprotective effects of (−)-91b, (−)-95a and (−)-95c against 6-OHDA-induced toxicity were evaluated next. […] At those concentration both drugs increased cell survival by ˜20% compared to 6-OHDA (75 μM) treated alone (FIGS. 4D and 4F), indicating neuroprotective effect of these drugs. […] This could be due to the fact that the compound by itself produced toxicity to the cells at doses ≥20 μM and the presence of 6-OHDA enhanced the toxicity (FIG. 4B).
PC12 cells (ATCC CRL1721.1, Manassas, Va., USA), a rat adrenal pheochromocytoma cell line, were cultured in T-75 flasks (Greiner Bio One, Frickenhausen, Germany) and maintained in RPMI 1640 medium supplemented with 10% heat inactivated horse serum, 5% fetal bovine serum, 100 U/ml penicillin, and 100 μg/mL streptomycin at 37° C. in 95% air/5% CO2. Stock solutions of (−)-91b, (−)-95a, (−)-95c, and 6-hydroxydopamine (6-OHDA) were prepared in dimethylsulfoxide (DMSO) and aliquots were stored at −20° C. and −80° C., respectively. For all experiments assessing neuroprotective effects of the test compounds, PC12 cells were pretreated with indicated concentrations of (−)-91b, (−)-95a and (−)-95c for 24 h and then treated with 75 μM 6-OHDA for another 24 h. The control cells were treated with above media containing 0.01% DMSO only.
PC12 cells were plated at 17000 cells/well density in 100 μL of media in 96-well plates and incubated at 37° C. under 5% CO2 atmosphere for 24 h. Cells were treated with varying concentrations of the test compounds to determine their direct effect on cell viability. Neuroprotection experiments were conducted by treating cells for 24 h with varying concentrations of (−)-91b, (−)-95a and (−)-95c. Then the drug containing media was replaced with fresh culture media followed by treatment with 75 μM of 6-OHDA alone for an additional 24 h under the same condition. After incubation for 24 h, 5 mg/mL MTT solution (prepared in Dulbecco's phosphate-buffered saline) was added to the cells (to a final concentration of 0.5 mg/mL) and the plates were further incubated at 37° C. in 95% air/5% CO2 atmosphere for 3-4 h to produce dark-blue formazan crystals. Afterward, the plates were centrifuged at 450 g for 10 min and the supernatants were carefully removed. Formazan crystals were dissolved by adding 100 μL of methanol:DMSO (1:1) mixture to each well and shaking gently at 400 rpm for 30 min at room temperature on a Thermomix R shaker (Eppendorf, Hamburg, Germany). The absorbance was measured on a microplate reader (Biotek Epoch, Winooski, Vt., USA) at 570 nm with background correction performed at 690 nm. Data from at least three experiments were analyzed using GraphPad software (version 6, San Diego, Calif., USA). Cell viability was defined as […] compared to untreated controls.

For another data set, the target named is α-syn (Homo sapiens (Human), UniProt P37840). Nature of the data set: Thioflavin T assay of α-syn aggregation seeded with 0.5% PFFs. Type of data set: biochemical. The note with it: 172.9 μM compound, 30D, 37° C., no agitation. On the procedure: The α-syn assay was carried out by following the procedures developed by us earlier. The compounds (−)-91b (D636) and (−)-95a (D653) were incubated with α-syn seeded with 0.5% PFFs for a period of 30D at 37° C. without agitation. […] Both (−)-91b and (−)-95a lead to a significant decrease in the ThT fluorescence (p<0.0001) when compared to α-syn seeded with 0.5% PFFs alone at 30D (FIG. 5A).
The experimental conditions were followed as described in our earlier publication. Briefly, α-syn fibrils were formed by incubating purified α-syn at a concentration of 5 mg/mL at 37° C. under constant agitation at 1000 rpm in a Thermomix R shaker (Eppendorf, Hamburg, Germany) for a period of 5 days. These fibrils at a concentration of 0.5% were used to seed the aggregation of α-syn at 1.25 mg/ml (86.45 μM) with or without compounds D636 or D653 at a concentration of 172.9 μM without agitation at 37° C. for a period of 30 days. Samples were collected at 0D and 30D. Thioflavin T (ThT) assay was performed using these samples as described previously to evaluate the extent of aggregation.

For data set [2], the system named is PC12 cells. Briefly: MTT viability of PC12 cells treated with seeded α-syn aggregates. It counts as cell-based, rat. The note with it: 30D samples, 24 h treatment, compared to control (seeded α-syn alone 37%). As for the experimental part: When PC12 cells were treated with the aggregates formed by 0.5% PFFs seeding at 30D, it was observed that the viability went down to 37% when compared to control. […] The viability values of PC12 cells when treated with α-syn seeded samples in the presence of (−)-91b and (−)-95a were 71% and 72% at 30D when compared to control (FIG. 5B).
Further, the cytotoxicity of the aggregates formed was evaluated in PC12 cells. Briefly, PC12 cells were treated with α-syn aggregates such that its concentration is 10 μM. 24 h following treatments, viability was measured by MTT assay as described previously.

We go through two compounds from patent US10874669B2 (WAYNE STATE UNIVERSITY, priority 2018, dated 2020).

The structures appear in SMILES notation. Where two headings read alike, the source gives them in different places.

One may read the Ki as a dissociation constant, usually derived from enzyme kinetics or from competition with a known ligand. A lower Ki goes with a stronger hold on the target. As a reminder, the EC50 is the concentration that produces a half-maximal response. In general, Emax refers to the greatest response seen or fitted, relative to the assay's reference.

human DA D3 receptors, sequence (P35462 whole entry): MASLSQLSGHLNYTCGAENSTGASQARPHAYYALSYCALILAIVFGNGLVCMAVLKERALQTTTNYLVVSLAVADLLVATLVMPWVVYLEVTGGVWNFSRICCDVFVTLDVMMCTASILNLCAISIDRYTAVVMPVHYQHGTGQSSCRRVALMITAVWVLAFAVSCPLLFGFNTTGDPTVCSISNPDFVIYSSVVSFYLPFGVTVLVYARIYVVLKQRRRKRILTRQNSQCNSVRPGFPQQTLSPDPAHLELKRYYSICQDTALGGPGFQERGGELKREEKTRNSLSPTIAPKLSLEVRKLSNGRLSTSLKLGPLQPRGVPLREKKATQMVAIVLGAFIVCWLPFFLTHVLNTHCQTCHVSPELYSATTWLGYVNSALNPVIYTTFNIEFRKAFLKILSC
human DA D2 receptors, sequence (P14416 whole entry): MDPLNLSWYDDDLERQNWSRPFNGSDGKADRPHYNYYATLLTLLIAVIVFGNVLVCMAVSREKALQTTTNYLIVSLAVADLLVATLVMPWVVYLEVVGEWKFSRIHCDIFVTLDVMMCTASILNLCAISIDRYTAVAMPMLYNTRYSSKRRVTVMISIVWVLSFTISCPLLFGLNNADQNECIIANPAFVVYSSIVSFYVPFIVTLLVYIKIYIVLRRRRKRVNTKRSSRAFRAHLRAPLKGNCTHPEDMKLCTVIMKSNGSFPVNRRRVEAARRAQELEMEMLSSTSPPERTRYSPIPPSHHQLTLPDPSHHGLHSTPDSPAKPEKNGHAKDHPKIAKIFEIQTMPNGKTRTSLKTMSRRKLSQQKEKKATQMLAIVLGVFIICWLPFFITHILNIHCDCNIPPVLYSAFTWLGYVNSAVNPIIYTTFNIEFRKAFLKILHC
cloned rat D3 receptors, sequence (P19020 whole entry): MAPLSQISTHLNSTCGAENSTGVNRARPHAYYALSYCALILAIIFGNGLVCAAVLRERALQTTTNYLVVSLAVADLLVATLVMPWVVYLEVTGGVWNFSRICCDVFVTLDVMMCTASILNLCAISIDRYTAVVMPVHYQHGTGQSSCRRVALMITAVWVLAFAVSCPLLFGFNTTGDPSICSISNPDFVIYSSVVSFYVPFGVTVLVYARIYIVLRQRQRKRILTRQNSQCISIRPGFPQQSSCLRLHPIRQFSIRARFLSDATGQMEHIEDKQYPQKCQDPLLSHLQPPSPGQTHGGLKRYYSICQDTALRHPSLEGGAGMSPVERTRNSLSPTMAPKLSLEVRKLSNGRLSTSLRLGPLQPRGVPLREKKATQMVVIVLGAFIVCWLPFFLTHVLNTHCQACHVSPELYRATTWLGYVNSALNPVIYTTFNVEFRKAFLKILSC

Regarding `CCCN(CCN1CCN(c2ccc3[nH]c4ccccc4c3c2)CC1)[C@H]1CCc2nc(N)sc2C1` [(−)-91b, (S)—N^6-(2-(4-(9H-carbazol-3-yl)piperazin-1-yl)ethyl)-N^6-propyl-4,5,6,7-tetrahydrobenzo[d]thiazole-2,6-diamine], affinity at cloned rat D3 receptors was put at a Ki of 3.8 nM. Moreover, the concentration for a half-maximal effect (EC50) at human DA D2 receptors (CHO cells, read-out: EC50 (GTPγS), D2) came out at 48.7 nM; on human DA D3 receptors (CHO cells, read-out: EC50 (GTPγS), D3), 0.96 nM. Moreover, the maximal response (Emax) at human DA D2 receptors and on human DA D3 receptors was 87 to 93% in each case. Besides, in the data set with PC12 cells [1], the “concentration of greatest protective effect” value was determined as 5 µM. For the same compound, the “increase in cell survival compared to 6-OHDA treated alone” value with PC12 cells [1] is given as about 20%. Further, the “decrease in ThT fluorescence compared to seeded α-syn” value on α-syn came out at 16 fold. The “viability of PC12 cells treated with α-syn seeded samples formed with compound” value in the data set on PC12 cells [2] is 71%.

The compound `CCCN(CCN1CCN(c2ccc3c(c2)[nH]c2ccccc23)CC1)[C@H]1CCc2c(O)cccc2C1` [Compound (−)-95a, (S)-6-((2-(4-(9H-carbazol-2-yl)piperazin-1-yl)ethyl)(propyl)amino)-5,6,7,8-tetrahydronaphthalen-1-ol] gave an inhibition constant Ki at cloned rat D3 receptors of 0.4 nM. Moreover, at human DA D2 receptors, it took 0.87 nM to reach a half-maximal effect (EC50) and the Emax fell in the range of 85 to 92%. At human DA D3 receptors, this compound came in with a concentration giving a half-maximal response (EC50) of 0.23 nM and an Emax of 85 to 92%. Besides, in the data set with PC12 cells [1], the “concentration of greatest protective effect” value came out at 10 µM and the “increase in cell survival compared to 6-OHDA treated alone” value was found to be 15%. Moreover, the “decrease in ThT fluorescence compared to seeded α-syn” value at α-syn stood at 3 fold. Further, in the data set with PC12 cells [2], the “viability of PC12 cells treated with α-syn seeded samples formed with compound” value is on record as 72%.
